Measurements reported in paper PMC11601558, “SLC6A19 inhibition facilitates urinary neutral amino acid excretion and lowers plasma phenylalanine” (JCI Insight, 2024).
Values joined by “and” are separate entries in the source; they are usually repeats but may differ in a detail not shown here. Equal entries are not always repeated.

Tested on: Pah^enu2 mice
Experiment: Urine amino acid excretion in Pah^enu2 mice after JN-170
Type: in vivo, mouse
Set-up: urine Gln excretion / urine Phe excretion: unit not given here
Details: for 12-hour urine Phe excretion (Fig 3c): individual Pah^enu2 mice
Experimental: Male homozygous BTBR-Pah<enu2>/J (Pah^enu2) aged 10–13 weeks were purchased from Jackson Laboratory (no. 002232). Immediately before dosing, each animal’s bladder was manually emptied and a plasma sample was drawn. Animals were dosed by oral gavage with vehicle (10% DMSO, 20% 2-hydroxypropyl-β-cyclodextrin [Sigma-Aldrich]) followed by a 1-week washout prior to dosing with JN-170 at doses ranging from 50 to 250 mg/kg. Following dosing with vehicle or JN-170, animals were individually placed in metabolic cages to collect urine samples. After collection of each urine sample, cages were rinsed with ultra-pure water to recover residual analytes. Blood samples were collected predose as well as 1, 3, 8, 12, and 24 hours after dosing with vehicle or JN-170 into tubes with EDTA as a […], and plasma was separated by centrifuging samples at 2,200g for 5 minutes at 4°C. Throughout the study, mice had access to food and water ad libitum. Plasma and urine samples were stored at –80°C until processing.Ten-week-old male WT C57Bl/6J animals (Si Bei Fu Laboratory Animal Technology Co. Ltd.) were dosed either with vehicle or 50–250 mg/kg JN-170 by oral gavage and blood and urine samples were collected as described. All animals had unrestricted access to food and water during the study; C57Bl/6J were kept on rodent maintenance diet from Beijing Keao Xieli, Pah^enu2 mice were kept on Teklad diet no. T.2018.
Urine and cage-wash samples were vortexed and centrifuged at 3,700g for 5 minutes to remove any solid precipitate. Neat samples and samples diluted 1:10 in water were further diluted 1:10 in crash solution (75% acetonitrile 25% methanol, 0.1% formic acid, 5 mM heavy labeled amino acids) to precipitate proteins. Samples were centrifuged at 3,700g for 5 minutes before the supernatant was transferred into an injection plate. Urine amino acid analysis was carried out using a quadrupole time of flight (QToF) LC-mass spectrometry (QToF-LC-MS) bioanalytical method. A standard curve of 1 mM down to 0.06 μM was used as the calibration curve to which samples were quantified. The amino acid concentrations were calculated with a 1/×2 linear regression over a concentration range of 60 nM to 1,000 μM of the individual amino acids. An Agilent QToF 6545 was operated in an accurate mass full scan range of 100–1,700 m/z positive ions formed by electrospray ionization with a normal phase HILIC chromatographic method. An Agilent InfinityLab Poroshell 120 HILIC-Z, 2.1 × 150 mm, 2.7 μm was used as the analytical column with 10 mM Ammonium Acetate in 0.1% FA as mobile phase A and 10 mM Ammonium Acetate in 95% ACN, 0.1% FA as mobile phase B. At a flow rate of 0.25 mL/min, the binary gradient increased from an initial 100% phase B to 90% phase B over 3 minutes. After 1.5 minutes, the gradient ramped to 80% mobile phase B. At 5.6 minutes into the gradient, mobile phase B ramped from 60% to 0% and held for 2 minutes before returning to initial conditions at 7.5 minutes. The gradient was stopped at 10 minutes.Total urine amino acid amounts were calculated by multiplying urine amino acid concentrations by the urine volume and adding the amount of amino acid recovered in the cage wash, which was calculated by multiplying the cage wash amino acid concentration by the cage wash volume.

[1] = Fig S3b, Pahenu2 mice, individual animals
[2] = Pah^enu2 mice, 0–3 hours after 200 mg/kg

## N#Cc1ccc(-c2noc([C@]3(C(F)(F)F)CCN(C(=O)NCCC4(N)CC4)C3)n2)cc1 [JN-170]
0–3 hours after 200 mg/kg
  urinary excretion of Phe, Pah^enu2 vs WT mice: approximately 60 fold
50 mg/kg vs vehicle
  change in 12 hour urine Arg excretion (Fig 3b): 0.3802 log FC
  change in 12 hour urine Gln excretion (Fig 3b): 1.423 log FC
  change in 12 hour urine Glu excretion (Fig 3b): 0.4771 log FC
  change in 12 hour urine His excretion (Fig 3b): 1.279 log FC
  change in 12 hour urine Lys excretion (Fig 3b): 0.2248 log FC
  change in 12 hour urine Met excretion (Fig 3b): 0.6756 log FC
  change in 12 hour urine Phe excretion (Fig 3b): 1.34 log FC
  change in 12 hour urine Pro excretion (Fig 3b): -0.2483 log FC
  change in 12 hour urine Ser excretion (Fig 3b): 0.9904 log FC
  change in 12 hour urine Thr excretion (Fig 3b): 1.084 log FC
  change in 12 hour urine Trp excretion (Fig 3b): 1.144 log FC
  change in 12 hour urine Tyr excretion (Fig 3b): 1.331 log FC
50 mg/kg
  12-hour urine Phe excretion (Fig 3c): 2329 µg and 2669 µg and 1215 µg and 2142 µg and 1931 µg and 2386 µg
100 mg/kg vs vehicle
  change in 12 hour urine Arg excretion (Fig 3b): 0.4771 log FC
  change in 12 hour urine Gln excretion (Fig 3b): 2.5092 log FC
  change in 12 hour urine Glu excretion (Fig 3b): 0.7782 log FC
  change in 12 hour urine His excretion (Fig 3b): 2.097 log FC
  change in 12 hour urine Lys excretion (Fig 3b): 0.583 log FC
  change in 12 hour urine Met excretion (Fig 3b): 1.421 log FC
  change in 12 hour urine Phe excretion (Fig 3b): 1.508 log FC
  change in 12 hour urine Pro excretion (Fig 3b): 0.2706 log FC
  change in 12 hour urine Ser excretion (Fig 3b): 1.62 log FC
  change in 12 hour urine Thr excretion (Fig 3b): 1.727 log FC
  change in 12 hour urine Trp excretion (Fig 3b): 1.687 log FC
  change in 12 hour urine Tyr excretion (Fig 3b): 1.929 log FC
100 mg/kg
  12-hour urine Phe excretion (Fig 3c): 3398 µg and 3162 µg and 4227 µg and 2980 µg and 2439 µg and 2425 µg
200 mg/kg
  12-hour urinary Phe excretion, mean ± SD: 4,170 ± 1505 μg
  12-hour urine Phe excretion (Fig 3c): 3871 µg and 5519 µg and 1571 µg and 5260 µg and 3572 µg and 5225 µg
200 mg/kg vs vehicle
  change in 12 hour urine Arg excretion (Fig 3b): 0.4472 log FC
  change in 12 hour urine Gln excretion (Fig 3b): 2.528 log FC
  change in 12 hour urine Glu excretion (Fig 3b): 0.7559 log FC
  change in 12 hour urine His excretion (Fig 3b): 2.089 log FC
  change in 12 hour urine Lys excretion (Fig 3b): 0.6206 log FC
  change in 12 hour urine Met excretion (Fig 3b): 1.349 log FC
  change in 12 hour urine Phe excretion (Fig 3b): 1.635 log FC
  change in 12 hour urine Pro excretion (Fig 3b): 0.1887 log FC
  change in 12 hour urine Ser excretion (Fig 3b): 1.594 log FC
  change in 12 hour urine Thr excretion (Fig 3b): 1.712 log FC
  change in 12 hour urine Trp excretion (Fig 3b): 1.74 log FC
  change in 12 hour urine Tyr excretion (Fig 3b): 1.783 log FC
250 mg/kg vs vehicle
  change in 12 hour urine Arg excretion (Fig 3b): 0.6435 log FC
  change in 12 hour urine Gln excretion (Fig 3b): 2.17 log FC
  change in 12 hour urine Glu excretion (Fig 3b): 0.7482 log FC
  change in 12 hour urine His excretion (Fig 3b): 1.862 log FC
  change in 12 hour urine Lys excretion (Fig 3b): 0.7733 log FC
  change in 12 hour urine Met excretion (Fig 3b): 1.454 log FC
  change in 12 hour urine Phe excretion (Fig 3b): 1.613 log FC
  change in 12 hour urine Pro excretion (Fig 3b): 0.0877 log FC
  change in 12 hour urine Ser excretion (Fig 3b): 1.762 log FC
  change in 12 hour urine Thr excretion (Fig 3b): 1.809 log FC
  change in 12 hour urine Trp excretion (Fig 3b): 1.96 log FC
  change in 12 hour urine Tyr excretion (Fig 3b): 1.972 log FC
250 mg/kg
  12-hour urine Phe excretion (Fig 3c): 2655 µg and 3486 µg and 5073 µg and 6377 µg and 3651 µg and 2501 µg
[1]
  urine Gln excretion: 800 and 1688 and 2419 and 1193 and 1615
  urine Phe excretion: 1730 and 2424 and 3033 and 1556 and 1834
[2]
  glutamine excreted in urine, mean ± SD: 1,543 ± 606 μg
  urinary excretion of Phe, mean ± SD: 2,115 ± 608 μg
≥ 200 mg/kg, 12-hour urine, vs vehicle
  increase in urinary Phe excretion: > 40 fold
